System: JAM-A
Assay: Western blot of JAM-A protein in HMEC-1 cells
Format: cell-based, human
Description: The cells were lysed with lysis buffer (1% Triton X-100 and 0.1% SDS in PBS) supplemented with Halt Protease Inhibitor Cocktail (Thermo Scientific, Waltham, Mass., USA). For the equalization between the samples before the semi-quantitative analyses the protein content of lysates was determined with the BCA Protein Assay Kit according to the manufacturer's protocol (Thermo Scientific). Cell lysate aliquots at a protein content of 50 μg per sample were boiled with 5× concentrated loading buffer (final concentrations: 50 mM Tris-HCl, pH 6.8, 8% glycerol, 2% SDS, 5% β-mercaptoethanol, 0.002% bromophenol blue), separated under reducing conditions on 4-20% gradient SDS-PAGE gels (Bio-Rad) and electroblotted (120 min, 200 mA, 4° C.) onto polyvinylidene difluoride (PVDF) membranes (Bio-Rad). The membranes were washed with Tris-buffered saline (TBS) and blocked for 2 hours with TBS containing 5% nonfat dry milk at room temperature. Then, the membranes were incubated overnight at 4° C. with an appropriate amount of primary antibody diluted in TBS containing 0.05% Tween 20 (TBST). The following primary antibodies were used: monoclonal rabbit anti-JAM-A (Abcam, Cambridge, UK) at a dilution of 1:500 and monoclonal mouse anti-GAPDH (R&D Systems, Minneapolis, Minn., USA) at a dilution of 1:1000. The membranes were washed several times with TBST and incubated for 1 hour at room temperature with the corresponding polyclonal anti-rabbit and anti-mouse HRP-conjugated secondary antibodies (Santa Cruz Biotechnology, Dallas, Tex., USA) at a 1:5000 dilution in TBST. Following the subsequent washes with TBST the membranes were further processed for chemiluminescent detection using Westar TiC ECL Substrate (Cyanagen, Bologna, Italy) and the images were documented by ChemiDoc MP Imager (Bio-Rad).

## Thymosin β4 (SDKPDMAEIEKFDKSKLKKTETQEKNPLPSKETIEQEKQAGES; not fully specified; Thymosin beta-4; UniProt P62328 2-44, looked up) [Tβ4]
Tβ4 200 nM or TGF-β1 10 ng/mL, 24-hours incubation
  level of JAM-A protein: evidently reduced the level of JAM-A protein
Tβ4 200 nM, 0, 2, 5, or 12 hours
  action on JAM-A expression over incubation time: time-dependent
